Consider twelve molecules from ChEMBL document CHEMBL1201862, “PubChem BioAssay data set” (2004).

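Exposure lasted 48 hours, with cells grown in 96-well plates and compounds tested at five concentrations. Here, GI50 denotes the concentration required for 50% inhibition of growth.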 The source made the active and inactive calls. No stated cut-off is given here; in the data, active = GI50 up to about 1.1 µM and inactive = higher. Some results are limits rather than exact numbers.

Some test systems named below: RXF 393; KM12; NCI-H226; HCC 2998; NCI-H522; A549; UACC-257; OVCAR-3; M14; RPMI-8226; BT-549; UACC-62; PC-3; K562; HL-60; HOP-62; SF-295; HOP-92; SNB-75; Malme-3M.
Holding throughout (assay): DTP human tumour cell line panel, 48 h

On to `Cc1csc2n(C)c(=O)c3ccccc3[n+]12`, for which the GI50 in the experiment on RXF 393, in the experiment with KM12, in the experiment on NCI-H226, in the experiment with HCC 2998, in the experiment on NCI-H522 and with A549 was > 100 µM (inactive) in each case. The GI50 with UACC-257 is > 100 µM (inactive); with OVCAR-3 it was > 100 µM (inactive); in the experiment on M14, > 100 µM (inactive); in the experiment on RPMI-8226, > 100 µM (inactive); in the experiment on BT-549, 79.4 µM (inactive); with UACC-62, > 100 µM (inactive). Further, the GI50 in the experiment on PC-3, with K562, with HL-60, in the experiment on HOP-62 and in the experiment on SF-295 was > 100 µM (inactive) in each case.

Turning to `COc1ccc(CC2NC(=O)/C=C/CC(C(C)C3OC3c3ccccc3)OC(=O)C(CC(C)C)OC(=O)C(C)CNC2=O)cc1Cl` (stereo unspecified), the GI50 in the experiment on RXF 393 was < 1e-05 µM (active); in the experiment on HOP-92, 0.000205 µM (active); in the experiment with KM12 it was < 1e-05 µM (active); in the experiment on NCI-H226 it was 2.4e-05 µM (active); in the experiment on SNB-75 it was 2.83e-05 µM (active); in the experiment with HCC 2998 it was 3.07e-05 µM (active). Further, the GI50 in the experiment on NCI-H522 is < 1e-05 µM (active); in the experiment on A549, < 1e-05 µM (active); in the experiment with UACC-257, 4.07e-05 µM (active); in the experiment on OVCAR-3, < 1e-05 µM (active); in the experiment with M14, 1.04e-05 µM (active); in the experiment with RPMI-8226, 3.62e-05 µM (active). For the same molecule, the GI50 was 1.1e-05 µM (active) with UACC-62; 1.04e-05 µM (active) in the experiment with PC-3; < 1e-05 µM (active) with K562; < 1e-05 µM (active) in the experiment on HL-60; 1.76e-05 µM (active) in the experiment with HOP-62; 1.34e-05 µM (active) in the experiment with SF-295.

Regarding `O=[N+]([O-])C(/C(Cl)=C(/Cl)N1CCOCC1)=C1\Nc2ccccc2O1`, the GI50 with KM12 is > 100 µM (inactive); with NCI-H226 it was > 100 µM (inactive); in the experiment on SNB-75, > 100 µM (inactive); in the experiment on HCC 2998 it was 16.1 µM (inactive); in the experiment with A549 it was > 100 µM (inactive); in the experiment on UACC-257, 15 µM (inactive). In addition, the GI50 with OVCAR-3 is 24.4 µM (inactive); in the experiment with M14, > 100 µM (inactive); with RPMI-8226 it was > 100 µM (inactive); in the experiment with BT-549 it was > 100 µM (inactive); in the experiment with UACC-62 it was 96.2 µM (inactive); in the experiment with PC-3, > 100 µM (inactive). Moreover, the GI50 with K562, in the experiment on HOP-62, with SF-295 and in the experiment with Malme-3M was > 100 µM (inactive) throughout.

On to `Nc1ccccc1C(=O)CCC1C(=O)NC(=S)NC1=O`, for which the GI50 in the experiment on RXF 393 was > 100 µM (inactive); with HOP-92, > 91.4 µM (inactive); in the experiment with KM12, > 100 µM (inactive); in the experiment with NCI-H226, > 100 µM (inactive); with SNB-75 it was 43.8 µM (inactive); in the experiment on HCC 2998, > 100 µM (inactive). Besides, the GI50 in the experiment with NCI-H522, in the experiment on A549, in the experiment with UACC-257, with OVCAR-3, in the experiment on M14 and in the experiment on RPMI-8226 was > 100 µM (inactive) each time. Moreover, the GI50 in the experiment with UACC-62, in the experiment with PC-3, with K562, with HL-60, in the experiment with HOP-62 and with SF-295 was > 100 µM (inactive) throughout. Also, the GI50 in the experiment on Malme-3M was > 100 µM (inactive).

As to `S=C=NC1CCC(c2cc3ccccc3s2)(N2CCCCC2)CC1` (stereo unspecified), the GI50 in the experiment on RXF 393 is 1.72 µM (inactive); in the experiment with HOP-92 it was 1.68 µM (inactive); in the experiment with KM12, 1.87 µM (inactive); with SNB-75, 1.87 µM (inactive); in the experiment with HCC 2998 it was 1.8 µM (inactive); with NCI-H522, 1.63 µM (inactive). Moreover, the GI50 in the experiment with A549 was 3.01 µM (inactive); in the experiment with UACC-257 it was 1.73 µM (inactive); in the experiment on OVCAR-3, 2.09 µM (inactive); in the experiment with M14, 1.86 µM (inactive); in the experiment with RPMI-8226, 1.46 µM (inactive); with BT-549, 2.09 µM (inactive). The GI50 with UACC-62 was 1.76 µM (inactive); with K562 it was 0.0546 µM (active); in the experiment on HL-60 it was 1.31 µM (inactive); in the experiment with HOP-62, 2.07 µM (inactive); in the experiment with SF-295, 2.58 µM (inactive); in the experiment with Malme-3M, 1.61 µM (inactive).

For `CCN(CC)Cc1ccccc1CC(=O)N1c2ccccc2C(=O)Nc2cccnc21`, the GI50 in the experiment on RXF 393, in the experiment on HOP-92, in the experiment with KM12, in the experiment on NCI-H226, in the experiment with HCC 2998 and in the experiment on NCI-H522 was > 100 µM (inactive) in each case. In addition, the GI50 in the experiment with A549, with UACC-257, with OVCAR-3, in the experiment on M14, in the experiment on RPMI-8226 and in the experiment on UACC-62 was > 100 µM (inactive) throughout. In addition, the GI50 was > 100 µM (inactive) in the experiment with PC-3; 79.6 µM (inactive) in the experiment with K562; 46 µM (inactive) in the experiment with HL-60; 64 µM (inactive) in the experiment with HOP-62; > 100 µM (inactive) with SF-295; > 100 µM (inactive) in the experiment with Malme-3M.

In the case of `CCCCCCCCCc1c(Cl)nc(Cl)nc1Cl`, the GI50 was 14.4 µM (inactive) with RXF 393; 15.3 µM (inactive) in the experiment on HOP-92; 32.7 µM (inactive) with KM12; 5.62 µM (inactive) with NCI-H226; 15 µM (inactive) in the experiment on SNB-75; 3.74 µM (inactive) with HCC 2998. In addition, the GI50 in the experiment on NCI-H522 was 3.67 µM (inactive); with A549, 20.9 µM (inactive); with UACC-257 it was 19.8 µM (inactive); with OVCAR-3 it was 17.9 µM (inactive); in the experiment on M14, 3.48 µM (inactive); with RPMI-8226, 14.6 µM (inactive). The GI50 with UACC-62 is 20 µM (inactive); in the experiment on PC-3 it was 15.7 µM (inactive); with K562, 6.68 µM (inactive); in the experiment on HL-60 it was 5.05 µM (inactive); in the experiment with HOP-62, 22.5 µM (inactive); in the experiment on SF-295, 20.7 µM (inactive). The GI50 with Malme-3M was 10.8 µM (inactive).

As for `COc1ccc(CSc2ccccc2Cn2cccc2)cc1OC`, the GI50 in the experiment with KM12 was 28.3 µM (inactive); with NCI-H226, > 100 µM (inactive); in the experiment on SNB-75, > 100 µM (inactive); in the experiment with HCC 2998, 56.6 µM (inactive); with A549, 98.2 µM (inactive); in the experiment on UACC-257 it was 27.8 µM (inactive). For the same molecule, the GI50 with OVCAR-3 is 16 µM (inactive); in the experiment on RPMI-8226, 11.6 µM (inactive); with BT-549 it was 46 µM (inactive); with UACC-62 it was 71.6 µM (inactive); in the experiment with K562, 27 µM (inactive); in the experiment on HL-60, 20.7 µM (inactive). For the same molecule, the GI50 with HOP-62 is > 100 µM (inactive); in the experiment with SF-295, 25.5 µM (inactive); in the experiment with Malme-3M, 28.3 µM (inactive).

With `CCC(C=O)P1(=O)OC(C)(C)CN1C(C)(C)C` (stereo unspecified), the GI50 in the experiment with KM12 was 24.4 µM (inactive); with NCI-H226, > 100 µM (inactive); in the experiment on HCC 2998, 76.7 µM (inactive); in the experiment with A549, > 100 µM (inactive); in the experiment with UACC-257, > 100 µM (inactive); in the experiment on OVCAR-3, 20.6 µM (inactive). Besides, the GI50 with M14 is > 100 µM (inactive); with RPMI-8226, 65.3 µM (inactive); in the experiment on BT-549, > 100 µM (inactive); in the experiment with UACC-62 it was > 100 µM (inactive); in the experiment with PC-3, 84.3 µM (inactive); in the experiment on K562, 77.8 µM (inactive). Further, the GI50 with HOP-62 is 62.5 µM (inactive); in the experiment on SF-295 it was 32.5 µM (inactive); with Malme-3M it was 68.1 µM (inactive).

Take `c1ccc(/N=c2/[nH]c3ccccc3s/c2=N/c2ccccc2)cc1`: the GI50 is 48.4 µM (inactive) in the experiment with RXF 393; > 100 µM (inactive) in the experiment on HOP-92; 73.8 µM (inactive) in the experiment on KM12; > 100 µM (inactive) in the experiment with NCI-H226; > 100 µM (inactive) with SNB-75; 42.7 µM (inactive) with HCC 2998. For the same molecule, the GI50 with NCI-H522 was 26.3 µM (inactive); in the experiment on A549 it was > 100 µM (inactive); in the experiment on UACC-257, > 100 µM (inactive); in the experiment with RPMI-8226, > 100 µM (inactive); in the experiment with UACC-62 it was > 100 µM (inactive); in the experiment on PC-3, > 100 µM (inactive). In addition, the GI50 with K562, in the experiment with HL-60, in the experiment with HOP-62, in the experiment on SF-295 and in the experiment with Malme-3M was > 100 µM (inactive) throughout.

Regarding `Cc1cc(=O)oc2c(CNC(CO)C(=O)O)c(O)ccc12` (stereo unspecified), the GI50 in the experiment with RXF 393, with HOP-92, in the experiment on KM12, with NCI-H226, in the experiment on SNB-75 and in the experiment with NCI-H522 was > 100 µM (inactive) each time. Further, the GI50 in the experiment with A549, in the experiment with UACC-257, in the experiment with OVCAR-3, with M14, with RPMI-8226 and in the experiment on UACC-62 was > 100 µM (inactive) throughout. Besides, the GI50 in the experiment on PC-3, in the experiment with K562, in the experiment on HL-60, in the experiment with HOP-62, with SF-295 and in the experiment with Malme-3M was > 100 µM (inactive) in each case.

`C[C@@H]1C(O)CC[C@H](C)C12CC=CC2=O` (stereo partly specified): the GI50 in the experiment on RXF 393, with HOP-92, in the experiment on NCI-H226, in the experiment with HCC 2998, with NCI-H522 and with A549 was > 100 µM (inactive) in each case. For the same molecule, the GI50 in the experiment with UACC-257, in the experiment with OVCAR-3, in the experiment on RPMI-8226, with UACC-62, with PC-3 and with K562 was > 100 µM (inactive) throughout. For the same molecule, the GI50 in the experiment with HL-60, with HOP-62, in the experiment with SF-295 and in the experiment on Malme-3M was > 100 µM (inactive) throughout.

In general, GI50 refers to the concentration that inhibits growth by half.
